Data from patent US10888544B2, “Methods for treating Gaucher disease” (Genzyme Corporation, priority 2017, dated 2021).
“And” between values parts separate entries of the source, which are not always exact repeats. Equal values may be shown once. Read-outs that look alike come from different tables or passages of the source.

Experiment: Phase 1 single dose pharmacokinetic study of eliglustat tartrate in severe renal impairment and matched normal renal function subjects (Example 3)
Type: in vivo, human
Settings: for AUC / Cmax / AUC(0-inf) / AUC(0-t) / Vd/F / Tmax: human, 100 mg; for AUC: read-out: AUC, geometric mean
Method: A phase 1, open-label, 2-stage, pharmacokinetic and tolerability study of single dose eliglustat tartrate in subjects with renal impairment (RI) (mild, moderate, and severe) and subjects with normal renal function, matched to RI subjects by age, weight, and cytochrome P450 [CYP] 2D6 phenotype was carried out to study the effect of mild, moderate, and severe RI on the pharmacokinetics (PK) of eliglustat.
Methodology: A phase 1, open-label, 2-stage, pharmacokinetic and tolerability study of single dose eliglustat tartrate in subjects with renal impairment (RI) (mild, moderate, and severe) and subjects with normal renal function, matched to RI subjects by age, weight, and cytochrome P450 [CYP] 2D6 phenotype.
Approximately 32 subjects were planned to be enrolled in 2 stages: Stage 1 comprised of 8 subjects with severe RI and 8 subjects with normal renal function, matched by CYP2D6 phenotype, weight, and age. […] Stage 2 was to include 8 subjects with mild and 8 subjects with moderate RI. Each cohort was to enroll at least 6 CYP2D6 extensive metabolizers (EMs). The remaining 2 subjects were to be poor metabolizers (PMs), intermediate metabolizers (IMs) or EMs, enrolled according to the following preference: at least 20 subjects were to be screened for each cohort and if identified, up to 2 PMs were to be enrolled. If less than 2 PMs were identified, up to 2 IMs were to be enrolled for a total of 8 subjects. If less than 2 PMs and IMs were identified, up to 2 additional EMs were to be enrolled for a total of 8 subjects. Allowed concomitant medications included no more than one weak CYP3A inhibitor and one weak CYP2D6 inhibitor, alone or in combination.
CYP2D6 EMs and IMs were to receive a single 100 mg dose of eliglustat tartrate while CYP2D6 PMs were to receive a single 50 mg dose of eliglustat tartrate.
Normal renal function subjects: Male or female subjects, between 18 and 79 years, inclusive, body weight within 15% of the body weight of matched subject with RI, BMI between 18.0 and 37.0 kg/m^2 and a CrCl of >80 mL/min. Healthy subjects were also matched by age and CYP2D6 predicted phenotype based on genotype.
A single 100 mg capsule of eliglustat tartrate (equivalent to 84 mg of eliglustat) was to be administered to CYP2D6 EM or IM subjects with RI and matching healthy subjects.
Pharmacokinetics: Plasma eliglustat concentrations were used to determine the following PK parameters using noncompartmental methods: Maximum plasma concentration observed (Cmax), first time to reach Cmax (tmax), area under the plasma concentration versus time curve calculated using the trapezoidal method from time zero to the time corresponding to the last concentration above the limit of quantification, tlast (AUClast), area under the plasma concentration time curve extrapolated to infinity (AUC), terminal half-life associated with the terminal slope Xz (t1/2z), apparent total body clearance of a drug from plasma (CL/F), and apparent volume of distribution during the terminal phase (VZ/F).
Blood samples were collected at the following time points to assess plasma concentrations of eliglustat: predose, and 0.5, 1, 1.5, 2, 2.5, 3, 4, 6, 8, 10, 12, 24, and 36 hours postdose.
Eliglustat concentrations in plasma were determined using a validated liquid chromatography tandem mass spectrometry method with a lower limit of quantification (LLOQ) of 0.2 ng/mL.
Eliglustat PK parameters were summarized using descriptive statistics for each population group and for each CYP2D6 phenotype. For log-transformed Cmax, AUClast, AUC, t1/2z, CL/F, and Vz/F, the effect of severe RI on eliglustat PK parameters after a single dose of eliglustat tartrate was analyzed using a linear fixed effects model on CYP2D6 EM subjects. Inclusion of population, CYP3A weak inhibitor, age, and weight as covariate was selected manually, choosing the model with the lowest AlC value. After testing, the final model chosen were those with only population as fixed term. […]

[1] = CYP2D6 EM, healthy, N=7, single oral 100 mg eliglustat tartrate, plasma
[2] = CYP2D6 EM, severe RI, N=7, single oral 100 mg eliglustat tartrate, plasma
[3] = CYP2D6 IM, healthy, N=1, single oral 100 mg eliglustat tartrate, plasma
[4] = IM severe RI subject taking escitalopram and amlodipine
[5] = Severe RI vs Healthy, CYP2D6 EM subjects (7 severe RI and 7 healthy)

In the case of `CCCCCCCC(=O)N[C@H](CN1CCCC1)[C@H](O)c1ccc2c(c1)OCCO2` [eliglustat, N-((1R,2R)-1-(2,3-dihydrobenzo[b][1,4]dioxin-6-yl)-1-hydroxy-3-(pyrrolidin-1-yl)propan-2-yl)octanamide], the “CL/F, geometric mean” value [1] is reported as “(834) [55.2] L/h”, the “CL/F, mean ± SD” value [1] is reported as 963 ± 532 L/h and the “t1/2z, geometric mean” value [1] is reported as “(8.39) [17.8] h”. The “t1/2z, mean ± SD” value [1] was 8.50 h and 8.50 ± 1.51 h, the “tlast, median” value [1] was 36.00 h and the “CL/F, geometric mean” value [2] was “(845) [39.2] L/h”. The “CL/F, mean ± SD” value [2] was 903 ± 354 L/h, the “t1/2z, geometric mean” value [2] was “(6.51) [13.3] h” and the “t1/2z, mean ± SD” value [2] was 6.56 h and 6.56 ± 0.876 h. The “tlast, median” value [2] was 36.00 h, the CL/F [3] was 151 L/h and the t1/2z [3] was 9.59 h. For the same molecule, the tlast [3] was 36.00 h, the tlast (CYP2D6 IM, severe RI, N=1, taking escitalopram and amlodipine, single oral 100 mg eliglustat tartrate, plasma) was 36.00 h and the “AUClast ratio, CYP2D6 IM with severe RI vs CYP2D6 EM with severe RI” value [4] was 35.2 fold. For the same molecule, the “AUClast ratio, CYP2D6 IM with severe RI vs CYP2D6 IM healthy subject” value [4] was 6.90 fold, the “AUClast ratio, CYP2D6 IM with severe RI vs healthy CYP2D6 EMs” value [4] was 32.1 fold and the “AUClast geometric mean ratio, point estimate” value [5] was 0.994. The “CL/F geometric mean ratio, point estimate” value [5] was 1.014, the “Vz/F geometric mean ratio, point estimate” value [5] was 0.787 and the “t1/2z geometric mean ratio, point estimate” value [5] was 0.776. It also gave an AUC (both sexes, plasma, oral, CYP2D6 EM, severe RI, coadministered weak CYP3A inhibitor amlodipine, N=5) of 98.3 ng·h/mL, a Cmax (both sexes, plasma, oral, CYP2D6 EM, severe RI, coadministered weak CYP3A inhibitor amlodipine, N=5, read-out: Cmax, geometric mean) of 10.6 ng/mL and an AUC (both sexes, plasma, oral, CYP2D6 EM, severe RI, eliglustat tartrate alone, N=2) of 104 ng·h/mL. The Cmax (both sexes, plasma, oral, CYP2D6 EM, severe RI, eliglustat tartrate alone, N=2, read-out: Cmax, geometric mean) was 15.2 ng/mL, the AUC(0-inf) (both sexes, plasma, po, CYP2D6 EM, healthy, N=7, single oral 100 mg eliglustat tartrate, plasma, read-out: AUC (extrapolated to infinity), geometric mean) was 101 ng·h/mL and the AUC(0-inf) (both sexes, plasma, po, CYP2D6 EM, healthy, N=7, single oral 100 mg eliglustat tartrate, plasma, read-out: AUC (extrapolated to infinity), mean ± SD) was 118 ± 71.1 ng·h/mL. It also gave an AUC(0-t) (both sexes, plasma, po, CYP2D6 EM, healthy, N=7, single oral 100 mg eliglustat tartrate, plasma, read-out: AUClast, geometric mean) of 96 ng·h/mL, an AUC(0-t) (both sexes, plasma, po, CYP2D6 EM, healthy, N=7, single oral 100 mg eliglustat tartrate, plasma, read-out: AUClast, mean ± SD) of 112 ± 68.7 ng·h/mL and a Cmax (both sexes, plasma, po, CYP2D6 EM, healthy, N=7, single oral 100 mg eliglustat tartrate, plasma, read-out: Cmax, geometric mean) of 13.4 ng/mL. It also gave a Cmax (both sexes, plasma, po, CYP2D6 EM, healthy, N=7, single oral 100 mg eliglustat tartrate, plasma, read-out: Cmax, mean ± SD) of 17.6 ± 13.2 ng/mL, a Vd/F (both sexes, plasma, po, CYP2D6 EM, healthy, N=7, single oral 100 mg eliglustat tartrate, plasma, read-out: Vz/F, geometric mean) of 10100 L and a Vd/F (both sexes, plasma, po, CYP2D6 EM, healthy, N=7, single oral 100 mg eliglustat tartrate, plasma, read-out: Vz/F, mean ± SD) of 11700 ± 6710 L. For the same molecule, the Tmax (both sexes, plasma, po, CYP2D6 EM, healthy, N=7, single oral 100 mg eliglustat tartrate, plasma, read-out: tmax, median) was 1.5 h, the Cmax (both sexes, plasma, po, CYP2D6 EM, severe RI, N=7 (5 taking amlodipine), single oral 100 mg eliglustat tartrate, plasma, read-out: Cmax, mean ± SD) was 12.7 ± 4.85 ng/mL and the AUC(0-inf) (both sexes, plasma, po, CYP2D6 EM, severe RI, N=7, single oral 100 mg eliglustat tartrate, plasma, read-out: AUC (extrapolated to infinity), geometric mean) was 99.8 ng·h/mL. It also gave an AUC(0-inf) (both sexes, plasma, po, CYP2D6 EM, severe RI, N=7, single oral 100 mg eliglustat tartrate, plasma, read-out: AUC (extrapolated to infinity), mean ± SD) of 107 ± 42.1 ng·h/mL, an AUC(0-t) (both sexes, plasma, po, CYP2D6 EM, severe RI, N=7, single oral 100 mg eliglustat tartrate, plasma, read-out: AUClast, geometric mean) of 95.5 ng·h/mL and an AUC(0-t) (both sexes, plasma, po, CYP2D6 EM, severe RI, N=7, single oral 100 mg eliglustat tartrate, plasma, read-out: AUClast, mean ± SD) of 102 ± 41.7 ng·h/mL. The Cmax (both sexes, plasma, po, CYP2D6 EM, severe RI, N=7, single oral 100 mg eliglustat tartrate, plasma, read-out: Cmax, geometric mean) was 11.8 ng/mL, the Vd/F (both sexes, plasma, po, CYP2D6 EM, severe RI, N=7, single oral 100 mg eliglustat tartrate, plasma, read-out: Vz/F, geometric mean) was 7940 L and the Vd/F (both sexes, plasma, po, CYP2D6 EM, severe RI, N=7, single oral 100 mg eliglustat tartrate, plasma, read-out: Vz/F, mean ± SD) was 8480 ± 3190 L. It also gave a Tmax (both sexes, plasma, po, CYP2D6 EM, severe RI, N=7, single oral 100 mg eliglustat tartrate, plasma, read-out: tmax, median) of 4 h, an AUC(0-inf) (plasma, oral, CYP2D6 IM, healthy, N=1, single oral 100 mg eliglustat tartrate, plasma, read-out: AUC (extrapolated to infinity)) of 559 ng·h/mL and an AUC(0-t) (plasma, oral, CYP2D6 IM, healthy, N=1, single oral 100 mg eliglustat tartrate, plasma, read-out: AUClast) of 520 ng·h/mL. The Cmax (plasma, oral, CYP2D6 IM, healthy, N=1, single oral 100 mg eliglustat tartrate, plasma, read-out: Cmax) was 54.7 ng/mL, the Vd/F (plasma, oral, CYP2D6 IM, healthy, N=1, single oral 100 mg eliglustat tartrate, plasma, read-out: Vz/F) was 2090 L and the Tmax (plasma, oral, CYP2D6 IM, healthy, N=1, single oral 100 mg eliglustat tartrate, plasma, read-out: tmax) was 3 h. It also gave an AUC(0-t) (plasma, oral, CYP2D6 IM, severe RI, N=1, taking escitalopram and amlodipine, single oral 100 mg eliglustat tartrate, plasma, read-out: AUClast) of 3590 ng·h/mL, a Cmax (plasma, oral, CYP2D6 IM, severe RI, N=1, taking escitalopram and amlodipine, single oral 100 mg eliglustat tartrate, plasma, read-out: Cmax) of 220 ng/mL and a Tmax (plasma, oral, CYP2D6 IM, severe RI, N=1, taking escitalopram and amlodipine, single oral 100 mg eliglustat tartrate, plasma, read-out: tmax) of 4 h.
